Measured values taken from US20100323990A1, “SHIP 1 MODULATOR PRODRUGS” (THE UNIVERSITY OF BRITISH COLUMBIA, priority 2006, published 2010).

Experiments:
plasma TNFα = assay: Mouse endotoxemia model (Assay 6), plasma TNFα by ELISA; format: in vivo, mice; details: oral, 30 min prior to IP 2 mg/kg LPS, plasma TNFα 2 hrs later
Description: (§1) Assay 1) In vitro testing in a SHIP enzyme assay. Test compounds were dissolved in a suitable solvent (e.g. EtOH, DMSO and others) and diluted into aqueous buffer (20 mM Tris HCl, pH 7.5 and 10 mM MgCl2). SHIP enzyme assays were performed in 96-well microtitre plates with 10 ng of enzyme/well in a total volume of 25 μL of 20 mM Tris HCl, pH 7.5 and 10 mM MgCl2. SHIP enzyme was incubated with test extracts (provided in solvent) or vehicle for 15 min at 23° C. before the addition of 100 μM inositol-1,3,4,5-tetrakisphosphate (Echelon Biosciences Inc, Salt Lake City, Utah). After 20 min at 37° C. and the amount of inorganic phosphate released assessed by the addition of Malachite Green reagent and absorbance measurement at 650 nm. Assay 2) Macrophage TNF-α production. J774.1a macrophage cells were treated with 10 μg/mL of test compound dissolved in solvent (e.g. cyclodextran) for 40 minutes prior to the addition of 100 ng/mL LPS. Culture supernatants were collected after 2 hr and 5 hr for TNF-α determination by ELISA. Assay 3) Macrophage TNF-α NO assay. J774.1a macrophage cells were treated with 10 μg/ml of test compound dissolved in solvent for 40 minutes prior to the addition of LPS. Culture supernatants were collected after 24 hr. for determination of NO concentration using the Griess reagent. Assay 4) Stimulation of mast cells by FcεRI crosslinking. Mast cells were pre-loaded overnight in BMMC medium lacking IL-3 with 0.1 μg/ml anti-DNP IgE (SPE-7, Sigma, Oakville, Ont). For calcium flux measurements, cells were incubated with 2 μM fura 2-acetoxymethyl ester (Molecular Probes, Eugene, Oreg.) in Tyrode's buffer at 23° C. for 45 min. Cells were then washed and incubated in the presence of the test compound 30 min prior to stimulation with the indicated concentration of DNP-human serum albumin (DNP-HSA). Calcium influx was monitored by spectrofluorometry as described previously. For analysis of intracellular signaling, cells were pre-loaded with anti-DNP IgE as above, pre-treated with the test compound for 30 min at 37° C. and stimulated with 20 ng/ml DNP-HSA for 5 min. Total cell lysates were then prepared and analyzed for phospho-PKB, phospho-p38^MAPK, phospho-MAPK, Grb-2 (Cell Signalling, Mississauga, Ont) and SHIP^6 by immunoblot analysis. Assay 5) Mouse acute cutaneous anaphylaxis model. 6-8 week old CD1 mice (University of British Columbia Animal Facility, Vancouver, BC) were sensitized to the hapten DNP by cutaneous application of 25 μL of 0.5% dinitrofluorobenzene (DNFB) (Sigma, Oakville, Ont) in acetone to the shaved abdomen of mice for two consecutive days. 24 hrs later, test substances (dissolved in 10 μL of 1:2 DMSO:MeOH) were painted on the right ear while the left ear received vehicle control. 30 min after drug application, DNFB was applied to both ears to induce mast cell degranulation. A 6 mm punch was taken from the ear and immediately frozen on dry ice for subsequent determination of neutrophil myeloperoxidase (MPO) activity. Assay 6) Mouse endotoxemia model. […] The ability of SHIP activators to reduce tumor cell survival was assessed in MM cell lines treated with the test compound. The lines OPM1, OPM2, MM.1S and RPMI 8226 were plated at a density of 1×10^5 cells/mL in 200 μL of medium with various concentrations of the test compound, and viable cell numbers were determined on day 3 and day 5 by trypan blue exclusion. […]

J2M macrophage cells = assay: TNFα production in LPS-stimulated J2M macrophages (Example 10); format: cell-based; details: 2 ng/mL LPS
Description: An assay to determine the inhibition of macrophage TNFα by varying concentrations of Compound 106 was carried out as follows.
J2M macrophage cells were plated at 2×10^5 cells/well in 24 well plates. The next day the media was changed and Compound 106 or PBS carrier were added to the wells at the indicated concentrations for 30 min prior to stimulation of the cells with 2 ng/mL lipopolysaccharide (LPS). LPS activation of macrophages leads to production of TNFa which can be detected in the culture supernatant and quantified by ELISA. The results are depicted in a graph in FIG. 2.

[1] = system: Bone marrow derived mast cells; assay: Calcium influx in mast cells after IgE receptor crosslinking (Example 11); format: cell-based; details: 1 hr treatment, anti IgE antibody
Description: An assay to determine the inhibition of calcium influx in mast cells by Compound 106 was carried out as follows.
The activation of mast cells by IgE receptor crosslinking leads to an influx of calcium into the cells, followed by degranulation and secretion of pro-inflammatory mediator. Bone marrow derived mast cells were loaded with the fluorescent calcium indicator dye Fura-2 prior to treatment for 1 hr with Compound 106 or PBS carrier. Cells were then stimulated or not with an anti IgE antibody to cross-link the IgE receptors. Calcium influx was then monitored by fluorimetry. The results are depicted in a graph in FIG. 3.

J774.1a macrophage cells [2] = assay: Macrophage TNF-α NO assay (Assay 3), Griess reagent; format: cell-based; details: 10 μg/ml test compound, LPS, supernatants after 24 hr; note: key: a ‘+’ indicates a positive result for desired activity; a ‘−’ indicates a negative result for desired activity
Description: (§2) Assay 1) In vitro testing in a SHIP enzyme assay. Test compounds were dissolved in a suitable solvent (e.g. EtOH, DMSO and others) and diluted into aqueous buffer (20 mM Tris HCl, pH 7.5 and 10 mM MgCl2). SHIP enzyme assays were performed in 96-well microtitre plates with 10 ng of enzyme/well in a total volume of 25 μL of 20 mM Tris HCl, pH 7.5 and 10 mM MgCl2. SHIP enzyme was incubated with test extracts (provided in solvent) or vehicle for 15 min at 23° C. before the addition of 100 μM inositol-1,3,4,5-tetrakisphosphate (Echelon Biosciences Inc, Salt Lake City, Utah). After 20 min at 37° C. and the amount of inorganic phosphate released assessed by the addition of Malachite Green reagent and absorbance measurement at 650 nm. Assay 2) Macrophage TNF-α production. J774.1a macrophage cells were treated with 10 μg/mL of test compound dissolved in solvent (e.g. cyclodextran) for 40 minutes prior to the addition of 100 ng/mL LPS. Culture supernatants were collected after 2 hr and 5 hr for TNF-α determination by ELISA. Assay 3) Macrophage TNF-α NO assay. J774.1a macrophage cells were treated with 10 μg/ml of test compound dissolved in solvent for 40 minutes prior to the addition of LPS. Culture supernatants were collected after 24 hr. for determination of NO concentration using the Griess reagent. Assay 4) Stimulation of mast cells by FcεRI crosslinking. Mast cells were pre-loaded overnight in BMMC medium lacking IL-3 with 0.1 μg/ml anti-DNP IgE (SPE-7, Sigma, Oakville, Ont). For calcium flux measurements, cells were incubated with 2 μM fura 2-acetoxymethyl ester (Molecular Probes, Eugene, Oreg.) in Tyrode's buffer at 23° C. for 45 min. Cells were then washed and incubated in the presence of the test compound 30 min prior to stimulation with the indicated concentration of DNP-human serum albumin (DNP-HSA). Calcium influx was monitored by spectrofluorometry as described previously. For analysis of intracellular signaling, cells were pre-loaded with anti-DNP IgE as above, pre-treated with the test compound for 30 min at 37° C. and stimulated with 20 ng/ml DNP-HSA for 5 min. Total cell lysates were then prepared and analyzed for phospho-PKB, phospho-p38^MAPK, phospho-MAPK, Grb-2 (Cell Signalling, Mississauga, Ont) and SHIP^6 by immunoblot analysis. Assay 5) Mouse acute cutaneous anaphylaxis model. 6-8 week old CD1 mice (University of British Columbia Animal Facility, Vancouver, BC) were sensitized to the hapten DNP by cutaneous application of 25 μL of 0.5% dinitrofluorobenzene (DNFB) (Sigma, Oakville, Ont) in acetone to the shaved abdomen of mice for two consecutive days. 24 hrs later, test substances (dissolved in 10 μL of 1:2 DMSO:MeOH) were painted on the right ear while the left ear received vehicle control. 30 min after drug application, DNFB was applied to both ears to induce mast cell degranulation. A 6 mm punch was taken from the ear and immediately frozen on dry ice for subsequent determination of neutrophil myeloperoxidase (MPO) activity. Assay 6) Mouse endotoxemia model. 6-8 week old C57B16 mice (VCHRI Mammalian Model of Human Disease Core Facility, Vancouver, BC) were orally administered the test compound 30 min prior to an IP injection of 2 mg/kg of LPS (E. Coli serotype 0111:B4, Sigma, Oakville, Ont). Blood was drawn 2 hrs later for determination of plasma TNFα by ELISA. Assay 7) In vitro Mulitple Myeloma (MM) assay. The ability of SHIP activators to reduce tumor cell survival was assessed in MM cell lines treated with the test compound. The lines OPM1, OPM2, MM.1S and RPMI 8226 were plated at a density of 1×10^5 cells/mL in 200 μL of medium with various concentrations of the test compound, and viable cell numbers were determined on day 3 and day 5 by trypan blue exclusion. The lines RPMI 8226 and U266 were plated at a density of 1×10^6 cells/mL in 250 μL of medium with various concentrations of the test compound. At day 4, the medium of each culture was replaced by fresh medium containing the same concentration of test compound. […]

J774.1a macrophage cells [3] = assay: Macrophage TNF-α production (Assay 2); format: cell-based; details: 10 μg/mL test compound, 100 ng/mL LPS, supernatants after 2 hr and 5 hr; note: key: a ‘+’ indicates a positive result for desired activity; a ‘−’ indicates a negative result for desired activity
Description: as §2

Mast cells = assay: Stimulation of mast cells by FcεRI crosslinking (Assay 4); format: cell-based; details: test compound 30 min prior to DNP-HSA
Description: as §1, with “model.” for “model. 6-8 week old CD1 mice (University of British Columbia Animal Facility, Vancouver, BC) were sensitized to the hapten DNP by cutaneous application of 25 μL of 0.5% dinitrofluorobenzene (DNFB) (Sigma, Oakville, Ont) in acetone to the shaved abdomen of mice for two consecutive days. 24 hrs later, test substances (dissolved in 10 μL of 1:2 DMSO:MeOH) were painted on the right ear while the left ear received vehicle control. 30 min after drug application, DNFB was applied to both ears to induce mast cell degranulation. A 6 mm punch was taken from the ear and immediately frozen on dry ice for subsequent determination of neutrophil myeloperoxidase (MPO) activity. Assay 6) Mouse endotoxemia model.”

## Cc1cc(OC(=O)C(N)CCCCN)cc2c1[C@]1(C)CCC3C(C)(C)CCC[C@]3(C)[C@H]1C2 (stereo partly drawn) [Compound 106]
Plasma TNFα
  Assay 6: Mouse endotoxemia model, desired activity: +
J2M macrophage cells
  inhibition of macrophage TNFα production: Inhibits Macrophage TNFα Production
[1]
  inhibition of calcium influx in mast cells: Inhibits Calcium Influx in Mast Cells
J774.1a macrophage cells [2]
  Assay 3: Macrophage NO assay, desired activity: +
J774.1a macrophage cells [3]
  Assay 2: Macrophage TNF-α production, desired activity: +
Mast cells
  Assay 4: Stimulation of mast cells by FcεRI crosslinking, desired activity: +
